Values of other authors in article PMC6413085, “A Validated HPLC-MS/MS Assay for 14-O-[(4,6-Diaminopyrimidine-2-yl)thioacetyl] Mutilin in Biological Samples and Its Pharmacokinetic, Distribution and Excretion via Urine and Feces in Rats” (Molecules, 2019).
Like-named read-outs stand apart in the source and are kept apart here.

Tests used:
[1] = in vivo; cited from earlier work
[2] = rat, in vivo, cited from earlier work; for time at which Cmax was achieved: 5 mg/kg
[3] = rabbit, in vivo, iv, 25 mg/kg; cited from earlier work

Structure (SMILES)	absolute bioavailability following oral administration [1] [%]	absolute bioavailability following oral administration ([2]; po) [%]	time at which Cmax was achieved [3] [h]	time at which Cmax was achieved ([2]; iv) [h]	time at which Cmax was achieved ([2]; po) [h]
C=C[C@]1(C)C[C@@H](OC(=O)CSC(C)(C)CNC(=O)[C@H](N)C(C)C)[C@]2(C)[C@H](C)CC[C@]3(CCC(=O)[C@H]32)[C@@H](C)[C@@H]1O [valnemulin]	36.68	100			
C=CC1(C)CC(OC(=O)CSc2nc(N)cc(O)n2)C2(C)C(C)CCC3(CCC(=O)C32)C(C)C1O (stereo not drawn) [14-O-[(4-amino-6-hydroxy-pyrimidine-2-yl)thioacetyl] mutilin]			0.08		
C=C[C@]1(C)C[C@@H](OC(=O)CSc2nnc(N)s2)[C@]2(C)[C@H](C)CC[C@]3(CCC(=O)[C@H]32)[C@@H](C)[C@@H]1O [14-O-[(2-amino-1,3,4-thiadiazole-5-yl)thioacetyl] mutilin]		35.81		0.08	0.75
